pIC50: −log10 of the molar value. Positions of bridges follow the written chain, without caps; N, C: chain ends. Residues, ends and D or L forms follow the SMILES beside them.
What was measured:
Assay in all cases: cell-based
[1] = target: hNav1.5 (Homo sapiens, UniProt Q14524); conditions: IonWorks Quattro, use-dependent block, hNav1.5; read-out: IWQ Use Nav1.5
[2] = target: hNav1.3 (Homo sapiens, UniProt Q9NY46); conditions: IonWorks Quattro, use-dependent block, hNav1.3; read-out: IWQ Use Nav1.3
[3] = target: hNav1.7 (Homo sapiens, UniProt Q15858); assay type: cell-based; conditions: IonWorks Quattro, use-dependent block, hNav1.7; read-out: IWQ Use Nav1.7
Sequence of hNav1.7 (Q15858 whole entry, looked up): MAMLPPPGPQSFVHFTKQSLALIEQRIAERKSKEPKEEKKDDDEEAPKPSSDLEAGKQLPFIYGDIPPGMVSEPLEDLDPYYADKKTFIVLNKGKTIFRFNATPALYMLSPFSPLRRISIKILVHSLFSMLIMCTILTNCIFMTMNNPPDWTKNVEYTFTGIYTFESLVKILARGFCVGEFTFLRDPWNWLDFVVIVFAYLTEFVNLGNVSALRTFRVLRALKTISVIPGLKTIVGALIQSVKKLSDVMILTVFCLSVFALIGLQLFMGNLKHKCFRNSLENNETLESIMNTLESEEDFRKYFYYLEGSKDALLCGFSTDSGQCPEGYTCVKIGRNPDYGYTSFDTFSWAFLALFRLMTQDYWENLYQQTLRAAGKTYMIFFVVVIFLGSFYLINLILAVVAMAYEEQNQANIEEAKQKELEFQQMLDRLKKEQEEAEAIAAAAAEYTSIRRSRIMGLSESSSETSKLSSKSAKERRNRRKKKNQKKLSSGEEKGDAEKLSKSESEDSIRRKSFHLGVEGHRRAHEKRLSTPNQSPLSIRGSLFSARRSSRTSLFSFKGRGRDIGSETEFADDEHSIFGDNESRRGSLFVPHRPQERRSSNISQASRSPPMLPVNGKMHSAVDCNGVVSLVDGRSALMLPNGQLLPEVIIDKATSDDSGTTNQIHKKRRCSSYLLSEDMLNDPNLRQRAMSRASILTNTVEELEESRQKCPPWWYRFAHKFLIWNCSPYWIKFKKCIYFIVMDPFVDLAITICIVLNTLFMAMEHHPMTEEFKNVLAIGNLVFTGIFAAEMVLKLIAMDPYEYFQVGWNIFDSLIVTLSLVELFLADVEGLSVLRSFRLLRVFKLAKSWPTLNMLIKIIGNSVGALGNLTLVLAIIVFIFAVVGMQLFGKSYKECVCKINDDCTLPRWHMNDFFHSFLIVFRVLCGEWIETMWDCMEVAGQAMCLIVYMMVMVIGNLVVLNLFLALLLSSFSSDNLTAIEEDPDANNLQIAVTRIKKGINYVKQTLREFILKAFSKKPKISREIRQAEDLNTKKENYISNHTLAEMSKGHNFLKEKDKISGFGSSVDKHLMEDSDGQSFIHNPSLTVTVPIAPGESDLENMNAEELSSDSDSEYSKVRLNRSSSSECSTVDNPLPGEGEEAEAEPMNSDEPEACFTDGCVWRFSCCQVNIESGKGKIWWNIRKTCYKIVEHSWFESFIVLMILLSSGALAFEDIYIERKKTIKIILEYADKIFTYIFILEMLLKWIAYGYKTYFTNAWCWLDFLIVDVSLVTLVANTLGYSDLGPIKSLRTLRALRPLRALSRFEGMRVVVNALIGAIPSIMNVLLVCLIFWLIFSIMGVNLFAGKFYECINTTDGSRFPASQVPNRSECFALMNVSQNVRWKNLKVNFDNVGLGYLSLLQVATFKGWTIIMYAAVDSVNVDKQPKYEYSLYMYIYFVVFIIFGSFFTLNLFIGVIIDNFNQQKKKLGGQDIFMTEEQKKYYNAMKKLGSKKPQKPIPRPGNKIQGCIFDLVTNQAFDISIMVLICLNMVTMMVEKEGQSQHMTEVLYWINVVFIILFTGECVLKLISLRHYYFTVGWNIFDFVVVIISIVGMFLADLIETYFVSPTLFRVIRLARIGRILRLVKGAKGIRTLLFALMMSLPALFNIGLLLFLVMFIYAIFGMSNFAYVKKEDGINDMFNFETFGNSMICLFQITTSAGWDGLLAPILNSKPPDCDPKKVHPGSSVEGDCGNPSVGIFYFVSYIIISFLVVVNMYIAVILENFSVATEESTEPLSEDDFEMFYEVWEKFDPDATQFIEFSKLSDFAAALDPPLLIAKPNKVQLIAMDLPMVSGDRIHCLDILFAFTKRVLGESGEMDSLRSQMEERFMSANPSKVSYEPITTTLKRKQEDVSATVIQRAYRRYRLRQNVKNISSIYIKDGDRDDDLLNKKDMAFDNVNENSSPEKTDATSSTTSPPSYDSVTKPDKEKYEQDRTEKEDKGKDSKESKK

Sequence of hNav1.5 (Q14524 whole entry, looked up): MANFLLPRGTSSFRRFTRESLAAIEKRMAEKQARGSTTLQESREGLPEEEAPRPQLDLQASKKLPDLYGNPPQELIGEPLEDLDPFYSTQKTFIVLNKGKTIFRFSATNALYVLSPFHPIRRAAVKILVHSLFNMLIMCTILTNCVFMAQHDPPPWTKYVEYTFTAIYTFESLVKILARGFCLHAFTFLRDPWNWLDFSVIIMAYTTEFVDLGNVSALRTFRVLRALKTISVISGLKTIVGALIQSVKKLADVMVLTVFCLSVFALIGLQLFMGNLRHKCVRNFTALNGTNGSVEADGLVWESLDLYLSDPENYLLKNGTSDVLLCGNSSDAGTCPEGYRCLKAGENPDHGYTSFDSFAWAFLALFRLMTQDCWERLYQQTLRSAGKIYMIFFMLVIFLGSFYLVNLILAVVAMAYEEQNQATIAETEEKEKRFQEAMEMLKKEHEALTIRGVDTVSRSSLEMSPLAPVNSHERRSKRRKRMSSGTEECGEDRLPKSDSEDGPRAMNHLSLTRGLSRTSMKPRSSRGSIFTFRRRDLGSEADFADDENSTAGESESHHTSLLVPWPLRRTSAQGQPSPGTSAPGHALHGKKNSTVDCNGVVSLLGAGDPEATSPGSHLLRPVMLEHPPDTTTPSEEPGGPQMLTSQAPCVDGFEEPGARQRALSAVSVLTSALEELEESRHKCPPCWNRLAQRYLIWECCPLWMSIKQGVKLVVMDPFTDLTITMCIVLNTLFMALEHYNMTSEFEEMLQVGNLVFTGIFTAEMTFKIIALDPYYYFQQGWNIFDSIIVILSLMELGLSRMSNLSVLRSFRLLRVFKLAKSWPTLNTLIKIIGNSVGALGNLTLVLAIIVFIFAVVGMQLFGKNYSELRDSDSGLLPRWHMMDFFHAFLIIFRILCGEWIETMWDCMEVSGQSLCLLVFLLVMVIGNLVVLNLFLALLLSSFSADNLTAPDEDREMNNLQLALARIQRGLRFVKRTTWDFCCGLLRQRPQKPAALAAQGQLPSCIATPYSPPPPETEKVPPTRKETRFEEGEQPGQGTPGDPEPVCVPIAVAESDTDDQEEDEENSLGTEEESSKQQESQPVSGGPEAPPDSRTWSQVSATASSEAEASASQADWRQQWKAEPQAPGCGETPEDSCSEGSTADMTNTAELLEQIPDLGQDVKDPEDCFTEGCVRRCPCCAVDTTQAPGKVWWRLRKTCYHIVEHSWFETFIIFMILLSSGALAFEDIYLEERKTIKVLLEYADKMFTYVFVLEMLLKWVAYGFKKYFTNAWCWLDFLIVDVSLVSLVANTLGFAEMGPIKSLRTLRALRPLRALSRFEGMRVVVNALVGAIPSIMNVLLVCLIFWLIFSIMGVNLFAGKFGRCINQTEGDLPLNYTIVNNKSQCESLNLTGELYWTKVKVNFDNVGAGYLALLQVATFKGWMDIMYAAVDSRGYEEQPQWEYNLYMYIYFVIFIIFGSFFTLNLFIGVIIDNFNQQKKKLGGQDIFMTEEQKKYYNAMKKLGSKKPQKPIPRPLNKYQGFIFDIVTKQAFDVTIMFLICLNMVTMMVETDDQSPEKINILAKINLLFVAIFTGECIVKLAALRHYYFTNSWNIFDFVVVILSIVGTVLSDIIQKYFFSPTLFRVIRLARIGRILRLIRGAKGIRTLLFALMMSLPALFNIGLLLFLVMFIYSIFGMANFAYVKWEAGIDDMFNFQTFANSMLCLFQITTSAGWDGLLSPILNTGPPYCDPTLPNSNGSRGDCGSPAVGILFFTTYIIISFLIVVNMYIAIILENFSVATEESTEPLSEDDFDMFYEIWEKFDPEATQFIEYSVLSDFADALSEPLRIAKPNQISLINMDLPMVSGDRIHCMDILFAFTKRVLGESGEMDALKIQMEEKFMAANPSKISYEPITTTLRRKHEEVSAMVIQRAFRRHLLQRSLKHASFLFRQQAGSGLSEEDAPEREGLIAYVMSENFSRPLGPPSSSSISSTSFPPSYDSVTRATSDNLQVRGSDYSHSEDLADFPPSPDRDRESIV

CC[C@H](C)[C@@H]1NC(=O)[C@@H]2CSSC[C@@H]3NC(=O)[C@H](C(C)C)NC(=O)[C@H](CC(C)C)NC(=O)[C@H](CC(N)=O)NC(=O)[C@@H]4CCCN4C(=O)[C@H](CCCNC(=N)N)NC(=O)[C@H](CSSC[C@H](NC(=O)[C@@H](N)CC(=O)O)C(=O)N[C@@H](CC(C)C)C(=O)NCC(=O)N[C@@H](C)C(=O)N[C@@H](CC(C)C)C(=O)N[C@@H](CCCNC(=N)N)C(=O)N[C@@H](CCCCN)C(=O)N2)NC(=O)[C@H](CSSC[C@@H](C(=O)N[C@@H](CCCCN)C(=O)N[C@@H](Cc2ccc(O)cc2)C(=O)N[C@H](C(=O)N[C@@H](Cc2ccccc2)C(=O)N[C@@H](Cc2ccccc2)C(=O)O)C(C)C)NC(=O)[C@H](Cc2c[nH]c4ccccc24)NC(=O)[C@H](CCCNC(=N)N)NC(=O)[C@H](Cc2c[nH]cn2)NC(=O)[C@H]([C@@H](C)O)NC(=O)[C@H](CCCNC(=N)N)NC(=O)[C@H](CO)NC3=O)NC(=O)[C@H](CCCCN)NC(=O)[C@H](CC(=O)O)NC(=O)[C@H](CC(N)=O)NC(=O)[C@H](CC(=O)O)NC(=O)[C@@H]2CCCN2C1=O [compound 818] (H-DCLGALRKCIPDNDKCCRPNLVCSRTHRWCKYVFF-OH; disulfide 2-17, 9-23, 16-30)
pIC50 [1]: < 5.30 | pIC50 [2]: 6.10 | pIC50 [3]: 5.64

CC[C@H](C)[C@@H]1NC(=O)[C@@H]2CSSC[C@@H]3NC(=O)[C@H](C(C)C)NC(=O)[C@H](CC(C)C)NC(=O)[C@H](CC(N)=O)NC(=O)[C@@H]4CCCN4C(=O)[C@H](CCCNC(=N)N)NC(=O)[C@H](CSSC[C@H](NC(=O)[C@H](CC(=O)O)NC(=O)[C@H](CO)NC(=O)CN)C(=O)N[C@@H](CC(C)C)C(=O)NCC(=O)N[C@@H](C)C(=O)N[C@@H](Cc4ccccc4)C(=O)N[C@@H](CCCNC(=N)N)C(=O)N[C@@H](CCCCN)C(=O)N2)NC(=O)[C@H](CSSC[C@@H](C(=O)N[C@@H](CCCCN)C(=O)N[C@@H](Cc2ccc(O)cc2)C(=O)N[C@H](C(=O)N[C@@H](Cc2ccccc2)C(=O)N[C@@H](Cc2ccccc2)C(=O)O)C(C)C)NC(=O)[C@H](Cc2c[nH]c4ccccc24)NC(=O)[C@H](CCCNC(=N)N)NC(=O)[C@H](Cc2c[nH]cn2)NC(=O)[C@H]([C@@H](C)O)NC(=O)[C@H](CCCNC(=N)N)NC(=O)[C@H](CO)NC3=O)NC(=O)[C@H](CCCCN)NC(=O)[C@H](CC(=O)O)NC(=O)[C@H](CC(N)=O)NC(=O)[C@H](CC(=O)O)NC(=O)[C@@H]2CCCN2C1=O [compound 819] (H-GSDCLGAFRKCIPDNDKCCRPNLVCSRTHRWCKYVFF-OH; disulfide 4-19, 11-25, 18-32)
pIC50 [1]: < 5.30 | pIC50 [2]: 6.30 | pIC50 [3]: 5.82

CC[C@H](C)[C@@H]1NC(=O)[C@@H]2CSSC[C@@H]3NC(=O)[C@H](C(C)C)NC(=O)[C@H](CC(C)C)NC(=O)[C@H](CC(N)=O)NC(=O)[C@@H]4CCCN4C(=O)[C@H](CCCNC(=N)N)NC(=O)[C@H](CSSC[C@H](NC(=O)[C@H](CC(=O)O)NC(=O)[C@H](CO)NC(=O)CN)C(=O)N[C@@H](CC(C)C)C(=O)NCC(=O)N[C@@H](C)C(=O)N[C@@H](Cc4ccccc4)C(=O)N[C@@H](CCCNC(=N)N)C(=O)N[C@@H](CCCCN)C(=O)N2)NC(=O)[C@H](CSSC[C@@H](C(=O)N[C@@H](CCCCN)C(=O)N[C@@H](Cc2ccc(O)cc2)C(=O)N[C@H](C(=O)N[C@@H](Cc2ccccc2)C(=O)O)C(C)C)NC(=O)[C@H](Cc2c[nH]c4ccccc24)NC(=O)[C@H](CCCNC(=N)N)NC(=O)[C@H](Cc2c[nH]cn2)NC(=O)[C@H]([C@@H](C)O)NC(=O)[C@H](CCCNC(=N)N)NC(=O)[C@H](CO)NC3=O)NC(=O)[C@H](CCCCN)NC(=O)[C@H](CC(=O)O)NC(=O)[C@H](CC(N)=O)NC(=O)[C@H](CC(=O)O)NC(=O)[C@@H]2CCCN2C1=O [compound 821] (H-GSDCLGAFRKCIPDNDKCCRPNLVCSRTHRWCKYVF-OH; disulfide 4-19, 11-25, 18-32)
pIC50 [1]: < 5.30 | pIC50 [2]: 5.49 | pIC50 [3]: 5.49

CC[C@H](C)[C@@H]1NC(=O)[C@@H]2CSSC[C@@H]3NC(=O)[C@H](C(C)C)NC(=O)[C@H](CC(C)C)NC(=O)[C@H](CC(N)=O)NC(=O)[C@@H]4CCCN4C(=O)[C@H](CCCNC(=N)N)NC(=O)[C@H](CSSC[C@H](NC(=O)[C@@H](N)CC(=O)O)C(=O)N[C@@H](CC(C)C)C(=O)NCC(=O)N[C@@H](C)C(=O)N[C@@H](Cc4ccccc4)C(=O)N[C@@H](CCCNC(=N)N)C(=O)N[C@@H](CCCCN)C(=O)N2)NC(=O)[C@H](CSSC[C@@H](C(=O)N[C@@H](CCCCN)C(=O)N[C@@H](Cc2ccc(O)cc2)C(=O)N[C@H](C(=O)N[C@@H](Cc2ccccc2)C(=O)O)C(C)C)NC(=O)[C@H](Cc2c[nH]c4ccccc24)NC(=O)[C@H](CCCNC(=N)N)NC(=O)[C@H](Cc2c[nH]cn2)NC(=O)[C@H]([C@@H](C)O)NC(=O)[C@H](CCCNC(=N)N)NC(=O)[C@H](CO)NC3=O)NC(=O)[C@H](CCCCN)NC(=O)[C@H](CC(=O)O)NC(=O)[C@H](CC(N)=O)NC(=O)[C@H](CC(=O)O)NC(=O)[C@@H]2CCCN2C1=O [compound 823] (H-DCLGAFRKCIPDNDKCCRPNLVCSRTHRWCKYVF-OH; disulfide 2-17, 9-23, 16-30)
pIC50 [1]: < 5.30 | pIC50 [2]: 5.47 | pIC50 [3]: 5.47

CC[C@H](C)[C@@H]1NC(=O)[C@@H]2CSSC[C@@H]3NC(=O)[C@H](C(C)C)NC(=O)[C@H](CC(C)C)NC(=O)[C@H](CC(N)=O)NC(=O)[C@@H]4CCCN4C(=O)[C@H](CCCNC(=N)N)NC(=O)[C@H](CSSC[C@H](NC(=O)[C@@H](N)CC(=O)O)C(=O)N[C@@H](CC(C)C)C(=O)NCC(=O)N[C@@H](C)C(=O)N[C@@H](Cc4ccccc4)C(=O)N[C@@H](CCCNC(=N)N)C(=O)N[C@@H](CCCCN)C(=O)N2)NC(=O)[C@H](CSSC[C@@H](C(=O)N[C@@H](CCCCN)C(=O)N[C@@H](Cc2ccc(O)cc2)C(=O)N[C@H](C(=O)N[C@@H](Cc2ccccc2)C(=O)O)C(C)C)NC(=O)[C@H](Cc2c[nH]c4ccccc24)NC(=O)[C@H](C)NC(=O)[C@H](Cc2c[nH]cn2)NC(=O)[C@H]([C@@H](C)O)NC(=O)[C@H](CCCNC(=N)N)NC(=O)[C@H](CO)NC3=O)NC(=O)[C@H](CCCCN)NC(=O)[C@H](CC(=O)O)NC(=O)[C@H](CC(N)=O)NC(=O)[C@H](CC(=O)O)NC(=O)[C@@H]2CCCN2C1=O [compound 824] (H-DCLGAFRKCIPDNDKCCRPNLVCSRTHAWCKYVF-OH; disulfide 2-17, 9-23, 16-30)
pIC50 [1]: < 5.30 | pIC50 [2]: < 5.30 | pIC50 [3]: < 5.30

CC[C@H](C)[C@@H]1NC(=O)[C@@H]2CSSC[C@@H]3NC(=O)[C@H](C(C)C)NC(=O)[C@H](CC(C)C)NC(=O)[C@H](CC(N)=O)NC(=O)[C@@H]4CCCN4C(=O)[C@H](CCCNC(=N)N)NC(=O)[C@H](CSSC[C@H](NC(=O)[C@@H](N)CC(=O)O)C(=O)N[C@@H](CC(C)C)C(=O)NCC(=O)N[C@@H](C)C(=O)N[C@@H](Cc4ccccc4)C(=O)N[C@@H](CCCNC(=N)N)C(=O)N[C@@H](CCCCN)C(=O)N2)NC(=O)[C@H](CSSC[C@@H](C(=O)N[C@@H](CCCCN)C(=O)N[C@@H](Cc2ccc(O)cc2)C(=O)N[C@H](C(=O)N[C@@H](Cc2ccccc2)C(=O)O)C(C)C)NC(=O)[C@H](Cc2c[nH]c4ccccc24)NC(=O)[C@H](CC(=O)O)NC(=O)[C@H](Cc2c[nH]cn2)NC(=O)[C@H]([C@@H](C)O)NC(=O)[C@H](CCCNC(=N)N)NC(=O)[C@H](CO)NC3=O)NC(=O)[C@H](CCCCN)NC(=O)[C@H](CC(=O)O)NC(=O)[C@H](CC(N)=O)NC(=O)[C@H](CC(=O)O)NC(=O)[C@@H]2CCCN2C1=O [compound 825] (H-DCLGAFRKCIPDNDKCCRPNLVCSRTHDWCKYVF-OH; disulfide 2-17, 9-23, 16-30)
pIC50 [1]: < 5.30 | pIC50 [2]: < 5.30 | pIC50 [3]: < 5.30

CC[C@H](C)[C@@H]1NC(=O)[C@@H]2CSSC[C@@H]3NC(=O)[C@H](C(C)C)NC(=O)[C@H](CC(C)C)NC(=O)[C@H](CC(N)=O)NC(=O)[C@@H]4CCCN4C(=O)[C@H](CCCNC(=N)N)NC(=O)[C@H](CSSC[C@H](NC(=O)[C@@H](N)CC(=O)O)C(=O)N[C@@H](CC(C)C)C(=O)NCC(=O)N[C@@H](C)C(=O)N[C@@H](Cc4ccccc4)C(=O)N[C@@H](CCCNC(=N)N)C(=O)N[C@@H](CCCCN)C(=O)N2)NC(=O)[C@H](CSSC[C@@H](C(=O)N[C@@H](CCCCN)C(=O)N[C@@H](Cc2ccc(O)cc2)C(=O)N[C@H](C(=O)N[C@@H](Cc2ccccc2)C(=O)O)C(C)C)NC(=O)[C@H](Cc2c[nH]c4ccccc24)NC(=O)[C@H](CCC(=O)O)NC(=O)[C@H](Cc2c[nH]cn2)NC(=O)[C@H]([C@@H](C)O)NC(=O)[C@H](CCCNC(=N)N)NC(=O)[C@H](CO)NC3=O)NC(=O)[C@H](CCCCN)NC(=O)[C@H](CC(=O)O)NC(=O)[C@H](CC(N)=O)NC(=O)[C@H](CC(=O)O)NC(=O)[C@@H]2CCCN2C1=O [compound 826] (H-DCLGAFRKCIPDNDKCCRPNLVCSRTHEWCKYVF-OH; disulfide 2-17, 9-23, 16-30)
pIC50 [1]: < 5.30 | pIC50 [2]: 5.74 | pIC50 [3]: < 5.30

CC[C@H](C)[C@@H]1NC(=O)[C@@H]2CSSC[C@@H]3NC(=O)[C@H](C(C)C)NC(=O)[C@H](CC(C)C)NC(=O)[C@H](CC(N)=O)NC(=O)[C@@H]4CCCN4C(=O)[C@H](CCCNC(=N)N)NC(=O)[C@H](CSSC[C@H](NC(=O)[C@@H](N)CC(=O)O)C(=O)N[C@@H](CC(C)C)C(=O)NCC(=O)N[C@@H](C)C(=O)N[C@@H](Cc4ccccc4)C(=O)N[C@@H](CCCNC(=N)N)C(=O)N[C@@H](CCCCN)C(=O)N2)NC(=O)[C@H](CSSC[C@@H](C(=O)N[C@@H](CCCCN)C(=O)N[C@@H](Cc2ccc(O)cc2)C(=O)N[C@H](C(=O)N[C@@H](Cc2ccccc2)C(=O)O)C(C)C)NC(=O)[C@H](Cc2c[nH]c4ccccc24)NC(=O)CNC(=O)[C@H](Cc2c[nH]cn2)NC(=O)[C@H]([C@@H](C)O)NC(=O)[C@H](CCCNC(=N)N)NC(=O)[C@H](CO)NC3=O)NC(=O)[C@H](CCCCN)NC(=O)[C@H](CC(=O)O)NC(=O)[C@H](CC(N)=O)NC(=O)[C@H](CC(=O)O)NC(=O)[C@@H]2CCCN2C1=O [compound 827] (H-DCLGAFRKCIPDNDKCCRPNLVCSRTHGWCKYVF-OH; disulfide 2-17, 9-23, 16-30)
pIC50 [1]: < 5.30 | pIC50 [2]: < 5.30 | pIC50 [3]: < 5.30

Reference: patent publication US9340590B2 (priority 2011, dated 2016)
